Paper PMC9112662, “Scaffold stability and P14′ residue steric hindrance in the differential inhibition of FXIIa by Aedes aegypti trypsin inhibitor versus Infestin-4” (Bioscience Reports, 2022)
Positions of bridges follow the written chain, without caps; N, C: chain ends. No end group written: not given here.

What was measured:
FXIIa [1] = biological target: T1, FXIIa (Homo sapiens, UniProt P00748); details: n = 3; read-out: IC50 values toward FXIIa
T1 construct: gene F12; human FXIIa (Merck)
T1 sequence (P00748 373-615): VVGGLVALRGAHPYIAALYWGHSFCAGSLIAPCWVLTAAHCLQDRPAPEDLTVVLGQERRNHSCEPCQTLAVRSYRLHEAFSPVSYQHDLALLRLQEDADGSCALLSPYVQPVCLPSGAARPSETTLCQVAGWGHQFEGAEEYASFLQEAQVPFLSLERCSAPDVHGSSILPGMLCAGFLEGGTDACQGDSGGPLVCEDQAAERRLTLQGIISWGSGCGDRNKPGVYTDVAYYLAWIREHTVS
Procedure: For IC50 determination, FXIIa was pre-incubated with different concentrations of inhibitors. The generation of p-nitroaniline (pNA) was determined by measuring the absorbance at 405 nm using a absorbance plate reader (Tecan; Männedorf, Switzerland). The reaction mixture consisted of 40 µl FXIIa (10 nM), 40 µl inhibitor, and 40 µl chromogenic substrate (1 mM). All reaction components were prepared in 50 mM Tris pH 7.4 containing 100 mM NaCl.
For IC50 calculations, log[inhibitor concentration] vs. percentage normalized inhibition was plotted using a non-linear regression curve function, created with Kaleidagraph 4.5.2 (Synergy Software; Reading, PA). All data represent the mean ± SD for triplicate values.

plasmin = details: cited from earlier work
thrombin = details: cited from earlier work
Source text: The Kazal-type inhibitor, Aedes aegypti trypsin inhibitor (AaTI), is a novel trypsin Kazal-type inhibitor from Aedes aegypti, the primary vector of mosquito-borne diseases like dengue. […] AaTI has a similar structure to that of Inf4 [19], and with only a 3-residue difference in the reactive-site loop sequence. The reactive-site loop sequence makes most-if not all-of the direct contacts with the protease and is thought to be the sole factor that govern the inhibitor specificity.

[2] = biological target: human Factor XIIa (human) (UniProt P00748)
FXIIa [3] = details: cited from earlier work

| Substance | IC50 (FXIIa [1]) | IC50 of inhibition of FXIIa activity, chromogenic assay (substrate S-2302) [2] | other results |
| --- | --- | --- | --- |
| AaTI with C1C3 and C3C4 regions of Inf4 (His-tagged) [AaTI_Inf4 C1C3+C3C4] | 147 ± 42.9 nM | – | – |
| AaTI with C1C3 and C5C6 regions of Inf4 (His-tagged) [AaTI_Inf4 C1C3+C5C6] | 113 ± 16.7 nM | – | – |
| AaTI with C1C3 and C5C6 regions of Inf4 and N27G (His-tagged) [AaTI_Inf4 C1C3+C5C6+N27G] | 11.4 ± 3.1 nM | – | – |
| AaTI with C1C3 region of Inf4 (His-tagged) [AaTI_Inf4 C1C3] | 4680 ± 3830 nM | – | – |
| AaTI with C1C3 region of Inf4 and F10A (His-tagged) [AaTI_Inf4 C1C3+F10A] | 610 ± 206 nM | – | – |
| AaTI with C1C3 region of Inf4 and N27G (His-tagged) [AaTI_Inf4 C1C3+N27G] | 58 ± 14.8 nM | – | – |
| Aedes aegypti trypsin inhibitor, RSDAERGVCACPRIYMPVCGSNLKTYNNDCLLRCEINSDLGRANNLRKIADQACDNLTDNVNDFIPQEY (His-tagged) [Wild-type AaTI] | > 10000 nM | – | Ki (plasmin): 3.8 nM; Ki (thrombin): 320 nM |
| Inf4 with C6 region replaced with that of AaTI (His-tagged) [Inf4_AaTI C6] | 6.2 ± 0.8 nM | – | – |
| KEVRNPCACFRNYVPVCGSDGKTYGNPCMLNCAAQTKVPGLKLVHEGRCQRSNVEQF (disulfide 7-32, 9-28, 17-49) [Wild-type Inf4] | – | – | Ki (FXIIa [3]): 0.128 nM; Ki (plasmin): 2.1 nM |

Further lines, with some results ahead:

| IC50 (FXIIa [1]) | IC50 of inhibition of FXIIa activity, chromogenic assay (substrate S-2302) [2] | Substance | other results |
| --- | --- | --- | --- |
| – | 11.6 nM | Inf4_F10P (domain or fragment) | – |
| – | 8.4 nM | Inf4_N12I (domain or fragment) | – |
| – | 9.9 nM | Inf4_V14M (domain or fragment) | – |
| – | 3.1 nM | Wild-type Infestin-4 (domain or fragment) | – |
